Measurements taken from patent US20240391931A1 (Bristol-Myers Squibb Company, priority 2021, published 2024).
Structures can show the parent of a compound that is named as a salt.

Tests used:
HER2YVMA = HER2YVMA (Homo sapiens, UniProt P04626, INS775YVMA); test: Enzymatic assay HER2YVMA (method b); assay type: biochemical; parameters: purchased Viva biotech, Shanghai, China custom purification; settings: [HER2YVMA]=5 nM, [ATP]=25 μM, [Peptide 22]=1 μM
Protocol: A 2× stock solution of HER2 WT (ERBB2 0108-0000-1; ProQinase, Freiburg, Germany) corresponding to method a, was prepared as described below. Alternatively, a 2× stock solution of HER2YVMA (custom purification; Viva biotech, Shanghai, China) corresponding to method b, was prepared as described below. For method c, a 2× stock of EGFR (ERBB1 PR7295B, Thermo Fisher, Carlsbad, CA) was prepared as described below. All 2× solutions were prepared in buffer containing 50 mM HEPES, pH 7.5, 10 mM MnCl2, MgCl2, 0.005% Tween 20, 1 mM TCEP. 25 ul of 2× enzyme solution was added to a Seahorse low volume 384-well polypropylene assay plate (201288-100, Seahorse Bioscience, Chicopee, MA) containing 1 μl of compound serially diluted in 50% DMSO. To initiate the reaction, 25 μl of solution containing 2× final concentration of ATP and ProfilerPro Peptide 22 (760366, Perkin Elmer Hopkinton, MA) was added to each well. The reactions were separated on an LC3000 (Caliper Life Sciences) or a LabChip EZReader (Perkin Elmer) in kinetic mode.
At the conclusion of each assay, the data were exported from the instrument as a .rda file (LC3000) and processed in proprietary software, EZReviewer, which determines the percent of substrate converted to product within a given cycle as (P/P+S)*100 by measuring the amplitude of substrate and product peaks. Cycle time varied with amount of compounds tested between 8 and 12 cycles. Initial velocity (0-3600 s) from each reaction was determined from the slope of a plot of percent conversion at each cycle versus time (seconds). Percent inhibition was determined by dividing the slope of each reaction by the uninhibited control using 100*(1-(x/uninhibited control)). IC50 estimates were obtained by plotting the concentration of inhibitor versus percent inhibition in GraphPad Prism (GraphPad Software, San Diego, CA) using log[inhibitor] versus Response (Variable Slope Model); Y=Min+((Max-Min)/(1+((IC50/x)^Hillslope)))
• a) [HER2 WT]=12.5 nM, [ATP]=25 μM, [Peptide 22]=1 μM (ATP KMapp˜25 μM) • b) [HER2YVMA]=5 nM, [ATP]=25 μM, [Peptide 22]=1 μM (ATP KMapp˜15 μM) • c) [EGFR WT]=2 nM, [ATP]=1 mM, [Peptide 22]=1 μM (ATP KMapp˜25 μM)

[1] = biological target: T1, HER2 wildtype (WT) protein (Homo sapiens, UniProt P04626); test: HER2 signaling (pHER2 Tyr1248/total HER2 MSD) in BT474 cells; assay type: cell-based; settings: 1.5 hr compound, 1% FBS
T1 construct: BT474 and N87 cell lines which endogenously overexpress the HER2 wildtype (WT) protein; endogenous in cells; host or cells: BT474, N87
Protocol: In addition to the engineered cell lines, the following cell lines were used: BT474 (human breast carcinoma), N87 (human gastric carcinoma), NCI-H1781 (human lung adenocarcinoma), and A431 (human epidermoid carcinoma); all cell lines were obtained from the American Type Culture Collection (ATCC, Manassas, VA). NCI-H1781 were grown in complete RPMI 1640 (Life Technologies, Carlsbad, CA) supplemented with 15% fetal bovine serum (FBS, Life Technologies, Carlsbad, CA) and 1% Penicillin-Streptomycin (P/S, Life Technologies, Carlsbad, CA). N87 cells were grown in complete RPMI 1640 supplemented with 10% FBS and 1% P/S. BT474 and A431 cells were grown in DMEM (Life Technologies, Carlsbad, CA) supplemented with 10% FBS and 1% P/S. All cells were maintained and propagated in a humidified 5% CO2 incubator at 37° C.
HER2 signaling was assessed in BT474 and N87 cell lines which endogenously overexpress the HER2 wildtype (WT) protein, in NCI-H1781 cells which endogenously expresses a HER2 mutant protein containing a VC insertion in the kinase domain (HER2VC or G776delinsVC), and in engineered cell lines transduced to express the Her2 mutant protein containing the YVMA insertion (Hek293-HER2YVMA and BEAS2B-HER2YVMA).
BT474, N87, and NCI-H1781 were plated in 96-well tissue-culture treated plates (Corning Costar, Sigma-Aldrich) in full media and incubated overnight. Hek293-HER2YVMA and BEAS2B-HER2YVMA cells were plated in 96-well poly-D-lysine treated plates (BD Bioscience, San Jose, CA). For treatment with test compounds, the media was replaced with corresponding low serum media (1% FBS) containing test compound at 1.1, 0.37, 0.12, 0.041, 0.014, 0.005, 0.0014, 0.0005 μM or DMSO control (0.1%). Cells were incubated with compound for 1.5 hr at 37° C. After compound treatment, the media was removed and cells were lysed for 30 min on ice in complete MSD lysis buffer (prepared using MSD base lysis buffer (Meso-Scale Discovery) supplemented with cOmplete, EDTA-free Protease inhibitor cocktail (Roche), Phosphatase Inhibitor Cocktails 2 and 3 (Sigma-Aldrich), and 1 mM PMSF (Sigma-Aldrich)). Lysates were stored at −70° C. until further analysis.
HER2 signaling was evaluated using phospho (Tyr1248)/total ErbB2 whole cell lysate MSD plates (Meso-Scale Discovery, Gaithersburg, MD). The phospho HER2 signal was normalized to total HER2 for each sample; results are reported as % DMSO control. The normalized data was fitted using a sigmoidal curve analysis program (Graph Pad Prism version 6) with variable Hill slope to determine EC50 values.
The HER2 signaling results are provided in Table 4, under columns titled “BT474-pHER2 EC50”, “N87-pHER2 EC50”, and “NCI-H1781-pHER2 EC50”. Hek293-HER2YVMA ins fall under the heading “HEKYVMA-pHER2 EC50”, Ba/F3 HER2YVMA fall under the heading “Ba/F3 YVMA-pHER2 EC50” and BEAS2B-HER2YVMA fall under the heading “BEAS2B YVMA-pHER2 EC50”.

Sequence of HER2YVMA (P04626 with tags, fused parts or gaps INS775YVMA): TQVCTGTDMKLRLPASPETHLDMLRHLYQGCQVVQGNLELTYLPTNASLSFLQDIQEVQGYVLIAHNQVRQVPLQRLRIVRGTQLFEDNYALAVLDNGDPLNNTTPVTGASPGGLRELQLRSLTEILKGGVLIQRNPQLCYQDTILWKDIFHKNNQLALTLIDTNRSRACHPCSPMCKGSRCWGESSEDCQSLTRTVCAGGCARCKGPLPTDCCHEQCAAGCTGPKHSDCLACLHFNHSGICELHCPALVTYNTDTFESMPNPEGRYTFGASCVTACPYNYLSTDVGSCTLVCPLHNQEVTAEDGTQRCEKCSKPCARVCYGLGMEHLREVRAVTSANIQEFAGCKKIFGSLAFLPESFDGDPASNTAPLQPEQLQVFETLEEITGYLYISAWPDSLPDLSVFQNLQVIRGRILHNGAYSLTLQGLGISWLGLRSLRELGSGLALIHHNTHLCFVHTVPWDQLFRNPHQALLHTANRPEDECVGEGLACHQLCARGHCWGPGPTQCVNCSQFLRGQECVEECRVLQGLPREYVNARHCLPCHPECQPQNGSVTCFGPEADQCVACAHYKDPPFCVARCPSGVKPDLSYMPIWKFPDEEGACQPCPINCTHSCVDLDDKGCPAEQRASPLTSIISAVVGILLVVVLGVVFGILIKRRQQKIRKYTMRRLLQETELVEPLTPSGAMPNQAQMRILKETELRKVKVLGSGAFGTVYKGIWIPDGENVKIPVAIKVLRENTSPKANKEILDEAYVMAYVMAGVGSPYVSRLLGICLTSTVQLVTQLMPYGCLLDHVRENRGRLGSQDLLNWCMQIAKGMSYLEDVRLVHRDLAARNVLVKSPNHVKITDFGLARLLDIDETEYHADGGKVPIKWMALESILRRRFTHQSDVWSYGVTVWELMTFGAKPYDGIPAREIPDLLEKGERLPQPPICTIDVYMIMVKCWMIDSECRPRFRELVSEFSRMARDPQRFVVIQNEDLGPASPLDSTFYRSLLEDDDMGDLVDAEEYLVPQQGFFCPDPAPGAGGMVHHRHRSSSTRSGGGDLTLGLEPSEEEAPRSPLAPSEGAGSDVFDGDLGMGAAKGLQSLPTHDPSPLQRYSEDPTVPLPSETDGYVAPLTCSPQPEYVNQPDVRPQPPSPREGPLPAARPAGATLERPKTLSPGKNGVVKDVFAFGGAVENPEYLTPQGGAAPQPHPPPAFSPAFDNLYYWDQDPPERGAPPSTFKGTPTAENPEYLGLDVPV
T1 sequence (P04626 23-1255): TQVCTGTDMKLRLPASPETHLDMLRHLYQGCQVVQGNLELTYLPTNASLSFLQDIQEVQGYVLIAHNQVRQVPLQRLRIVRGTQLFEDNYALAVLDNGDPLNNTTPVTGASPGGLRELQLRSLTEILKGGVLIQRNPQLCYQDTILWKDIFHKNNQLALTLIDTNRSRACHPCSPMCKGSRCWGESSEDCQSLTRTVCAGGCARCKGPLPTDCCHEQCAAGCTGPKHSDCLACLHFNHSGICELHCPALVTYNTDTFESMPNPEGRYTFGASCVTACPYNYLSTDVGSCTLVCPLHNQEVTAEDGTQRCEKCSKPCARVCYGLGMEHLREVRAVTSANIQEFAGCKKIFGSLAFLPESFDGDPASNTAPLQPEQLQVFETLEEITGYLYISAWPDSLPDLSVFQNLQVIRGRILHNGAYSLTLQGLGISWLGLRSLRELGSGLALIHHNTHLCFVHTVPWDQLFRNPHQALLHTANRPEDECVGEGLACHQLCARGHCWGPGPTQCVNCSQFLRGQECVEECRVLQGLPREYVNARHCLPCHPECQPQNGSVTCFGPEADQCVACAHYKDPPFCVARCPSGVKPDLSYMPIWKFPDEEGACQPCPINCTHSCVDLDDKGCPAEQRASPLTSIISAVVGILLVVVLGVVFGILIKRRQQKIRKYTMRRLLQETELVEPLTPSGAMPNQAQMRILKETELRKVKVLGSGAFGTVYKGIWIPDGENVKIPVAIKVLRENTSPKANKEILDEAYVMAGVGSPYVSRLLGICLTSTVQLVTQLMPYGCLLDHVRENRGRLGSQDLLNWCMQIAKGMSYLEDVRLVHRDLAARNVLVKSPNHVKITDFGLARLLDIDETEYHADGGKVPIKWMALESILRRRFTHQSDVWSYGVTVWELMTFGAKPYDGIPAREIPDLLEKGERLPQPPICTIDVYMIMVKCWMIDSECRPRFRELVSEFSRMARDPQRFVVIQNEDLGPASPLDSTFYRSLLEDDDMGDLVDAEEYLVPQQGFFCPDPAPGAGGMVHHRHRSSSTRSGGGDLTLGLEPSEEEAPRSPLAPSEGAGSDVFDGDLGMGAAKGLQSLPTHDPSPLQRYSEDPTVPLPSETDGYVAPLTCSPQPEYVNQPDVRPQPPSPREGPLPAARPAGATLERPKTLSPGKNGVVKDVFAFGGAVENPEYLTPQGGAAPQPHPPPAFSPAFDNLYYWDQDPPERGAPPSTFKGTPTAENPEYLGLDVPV

| SMILES | IC50 (HER2YVMA) [nM] | EC50 [1] [nM] |
| --- | --- | --- |
| Cc1ccc(Oc2ccc(Nc3ncnc4sc5c(c34)C(C)CN(C(=O)C=CCN(C)C(C)(C)C)C5)cc2C)cn1 (single isomer, unassigned) [Compound 179] | < 100 | < 100 |
| C=CC(=O)N1CCc2c(sc3ncnc(Nc4ccc(Oc5cccnc5)c(Cl)c4)c23)C1 [Compound 6, 1-(4-((3-chloro-4-(pyridin-3-yloxy)phenyl)amino)-5,8-dihydropyrido[4′,3′:4,5]thieno[2,3-d]pyrimidin-7(6H)-yl)prop-2-en-1-one] | < 100 | < 100 |
| COc1cc(Nc2ncnc3sc4c(c23)CCN(C(=O)/C=C/CN(C)C)C4)ccc1Oc1ccccc1 [Compound 7, (E)-4-(dimethylamino)-1-(4-((3-methoxy-4-phenoxyphenyl)amino)-5,8-dihydropyrido[4′,3′:4,5]thieno[2,3-d]pyrimidin-7(6H)-yl)but-2-en-1-one] | < 100 | < 100 |
| Cc1ccc(Oc2ccc(Nc3ncnc4sc5c(c34)CCN(C(=O)/C=C/CN(C)C)C5)cc2C)cn1 [Compound 8, (E)-4-(Dimethylamino)-1-(4-((3-methyl-4-((6-methylpyridin-3-yl)oxy)phenyl)amino)-5,6-dihydropyrido[4′,3′:4,5]thieno[2,3-d]pyrimidin-7(8H)-yl)but-2-en-1-one] | < 100 | < 100 |
| C=CC(=O)N1CCc2c(sc3ncnc(Nc4ccc(Oc5cccnc5)c(C)c4)c23)C1 [Compound 11, 1-(4-((3-methyl-4-(pyridin-3-yloxy)phenyl)amino)-5,8-dihydropyrido[4′,3′:4,5]thieno[2,3-d]pyrimidin-7(6H)-yl)prop-2-en-1-one] | < 100 | < 100 |
| Cc1cc(Nc2ncnc3sc4c(c23)CCN(C(=O)/C=C/CN2CCOCC2)C4)ccc1Oc1ccc2ncnn2c1 [Compound 12] | 100 to 1000 | < 100 |
| Cc1ccc(Oc2ccc(Nc3ncnc4sc5c(c34)CCN(C(=O)/C=C/CN3CC4CCC(C3)O4)C5)cc2C)cn1 [Compound 13] | 100 to 1000 | < 100 |
| Cc1ccc(Oc2ccc(Nc3ncnc4sc5c(c34)CCN(C(=O)/C=C/CN3CC4CCC3C4)C5)cc2C)cn1 (stereo not shown) [Compound 14] | < 100 | < 100 |
| Cc1ccc(Oc2ccc(Nc3ncnc4sc5c(c34)CCN(C(=O)/C=C/CN3CC4CC(C3)O4)C5)cc2C)cn1 [Compound 15] | 100 to 1000 | < 100 |
| Cc1ccc(Oc2ccc(Nc3ncnc4sc5c(c34)CCN(C(=O)/C=C/CN3CC4CCC(C4)C3)C5)cc2C)cn1 [Compound 16, (E)-4-(3-azabicyclo[3.2.1]octan-3-yl)-1-(4-((3-methyl-4-((6-methylpyridin-3-yl)oxy)phenyl)amino)-5,8-dihydropyrido[4′,3′:4,5]thieno[2,3-d]pyrimidin-7(6H)-yl)but-2-en-1-one benzenesulfonate salt] | < 100 | < 100 |
| Cc1ccc(Oc2ccc(Nc3ncnc4sc5c(c34)CCN(C(=O)/C=C/CN3CCOCC3)C5)cc2C)cn1 [Compound 17, (E)-1-(4-((3-Methyl-4-((6-methylpyridin-3-yl)oxy)phenyl)amino)-5,6-dihydropyrido[4′,3′:4,5]thieno[2,3-d]pyrimidin-7(8H)-yl)-4-morpholinobut-2-en-1-one] | < 100 | < 100 |
| O=C(/C=C/CN1CCOCC1)N1CCc2c(sc3ncnc(Nc4ccc(Oc5ccc6ncnn6c5)c(Cl)c4)c23)C1 [Compound 18] | < 100 | < 100 |
| Cc1cc(Nc2ncnc3sc4c(c23)CCN(C(=O)/C=C/CN(C)C)C4)ccc1Oc1ccc2scnc2c1 [Compound 107, (E)-1-(4-((4-(benzo[d]thiazol-5-yloxy)-3-methylphenyl)amino)-5,8-dihydropyrido[4′,3′:4,5]thieno[2,3-d]pyrimidin-7(6H)-yl)-4-(dimethylamino)but-2-en-1-one] | < 100 | < 100 |
| Cc1ccc(Oc2ccc(Nc3ncnc4sc5c(c34)CN(C(=O)/C=C/CN(C)C)CC5)cc2C)cn1 [Compound 108, (E)-4-(Dimethylamino)-1-(4-((3-methyl-4-((6-methylpyridin-3-yl)oxy)phenyl)amino)-7,8-dihydropyrido[3′,4′:4,5]thieno[2,3-d]pyrimidin-6(5H)-yl)but-2-en-1-one] | < 100 | < 100 |
| Cc1cc(Nc2ncnc3sc4c(c23)CCN(C(=O)/C=C/CN(C)C)C4)ccc1Oc1ccc2nccn2c1 [Compound 109, (E)-4-(dimethylamino)-1-(4-((4-(imidazo[1,2-a]pyridin-6-yloxy)-3-methylphenyl)amino)-5,6-dihydropyrido[4′,3′:4,5]thieno[2,3-d]pyrimidin-7(8H)-yl)but-2-en-1-one] | < 100 | < 100 |
| Cc1cn2ccc(Oc3ccc(Nc4ncnc5sc6c(c45)CCN(C(=O)/C=C/CN(C)C)C6)cc3C)cc2n1 [Compound 110, (E)-4-(dimethylamino)-1-(4-((3-methyl-4-((2-methylimidazo[1,2-a]pyridin-7-yl)oxy)phenyl)amino)-5,8-dihydropyrido[4′,3′:4,5]thieno[2,3-d]pyrimidin-7(6H)-yl)but-2-en-1-one] | < 100 | < 100 |
| Cc1cc(Nc2ncnc3sc4c(c23)CN(C(=O)/C=C/CN(C)C)C4)ccc1Oc1ccc2ncnn2c1 [Compound 111, (E)-1-(4-((4-([1,2,4]Triazolo[1,5-a]pyridin-6-yloxy)-3-methylphenyl)amino)-5H-pyrrolo[3′,4′:4,5]thieno[2,3-d]pyrimidin-6(7H)-yl)-4-(dimethylamino)but-2-en-1-one] | < 100 | < 100 |
| Cc1ccc(Oc2ccc(Nc3ncnc4sc5c(c34)CCN(C(=O)/C=C/CN3CCC[C@H](n4cccn4)C3)C5)cc2C)cn1 [Compound 112] | < 100 | < 100 |
| Cc1ccc(Oc2ccc(Nc3ncnc4sc5c(c34)CCN(C(=O)/C=C/CN3CCCC(c4nccs4)C3)C5)cc2C)cn1 (stereo not shown) [Compound 113] | < 100 | < 100 |
| Cc1ccc(Oc2ccc(Nc3ncnc4sc5c(c34)CCN(C(=O)/C=C/CN3CCC(O)C(C)(C)C3)C5)cc2C)cn1 (stereo not shown) [Compound 114] | < 100 | < 100 |
